Molecules are shown by their SMILES. In brackets after ≈: the same amount, converted by molar mass. Like-named read-outs stand apart in the source and are kept apart here.

Test [1] has as its system Bordetella bronchiseptica. The experiment in a line: Minimum growth inhibiting concentration, microorganisms that infect domestic animals (Table 2). Format: cell-based. The note with it: 4 strains, Heart infusion Agar, 48 hours. As to the method:
(§1) The minimum growth inhibiting concentrations were measured under identical conditions as in the case of Table 1, except that culture media indicated above were used and, in the case of that asterisked, the culture was carried out for 5 days, while the others were cultivated for 48 hours.

Test [2] has as its system Escherichia coli. Described as above. Format: cell-based. The note with it: 36 strains, TSB-Agar, 48 hours. As to the method: as §1
Test [3] deals with Mycolasma galli-septicum. Described as above. The note with it: 120 h, 6 strains, Hofstad, 5 days. Format: cell-based. As to the method:
as §1

In test [4] the test system is Pasteurella multocida Kobe-5. Described as above. It counts as cell-based. The note with it: KOBE5, TSB-Agar 10% rabbit blood added, 48 hours. The method, then:
as §1

Test [5] deals with Salmonella purollum. The test is described as above. It counts as cell-based. As to conditions: 42 strains, TSB-Agar, 48 hours. The method, then: as §1
Test [6] concerns Staphylococcus aureus. The description is as above. Format: cell-based. As to conditions: 15 strains, TSB-agar, 48 hours. As to the method: as §1
Test [7] relates to Erysiperothrix rhusiopatiae Agata. The experiment in a line: Cure of mice infected with Erysiperothrix rhusiopatiae (Table 5). Format: in vivo. As to conditions: Mus musculus, 168 h, observed 7 days, read-out: ED50 when used with Erysiperothrix rhusiopatiae. The method, then:
Mice of body weight about 20 grams were used, and 0.2 ml of a culture liquid obtained by cultivating Erysiperothrix rhusiopatiae Agata for 24 hours at 37° C. in a 10% calf serum TSB added culture medium (amount of inoculated germs 4.0 × 10^7) was injected abdominally.

In test [8] the test system is Staphlococcus aureus Kawanabe II. The experiment in a line: Curative effects on Staphlomycosis of fowl (Table 7). It counts as in vivo. As to conditions: two weeks, chicks died / chicks tested. As to the method:
A culture liquid obtained by cultivation of Staphlococcus aureus Kawanabe II for 20 hours at 37° C. in a heart infusion culture medium was injected intravenously into 3-week-old chicks at the rate of 0.2 ml per chick. Nitrofuran derivatives mixed in amounts indicated below in the feeds were then fed these chicks for two weeks. In the table the expression, "death rate" has the following meaning. For instance, the value 3/9 denotes that three out of the nine chicks submitted to the test died.

Test [9] concerns vibroid ulcers. The experiment in a line: Medicinal bath of young yellowtail with disease seeming to be vibroid ulcers. It counts as in vivo. As to conditions: of 30 fishes; 10 ppm seawater bath 10 minutes; reared further 20 days; untreated group 3 survivors. As to the method: In raising young yellowtail of a body length about 10-15 cm, since a disease seeming to be vibroid ulcers started to appear, 90 of the fishes were collected and divided into three groups. The first group of 30 fishes were reared as heretofore practiced with no change. On the other hand, the second and third groups of 30 fishes were placed for 10 minutes in respectively medicinal baths containing seawater solutions of 10 ppm of the compound of Example 1 ##SPC40##
and the compound of Example 9 ##SPC41##
following which the respective groups of fishes were returned to normal seawater where they were reared for a further 20 days. The number of fishes surviving in the case of the first group was three fishes, whereas in the case of the second and third groups, the numbers of fishes surviving were 26 and 25 fishes, respectively.

On to `O=C(NCC(O)CO)c1ccc(C=Cc2ccc([N+](=O)[O-])o2)cc1` (stereo not shown) [Example 9, 3-Para-[2'-(5"-nitro-2"-furyl)-vinyl]-benzoylamino-1,2-propanediol], for which the MIC in test [1] is 25 µg/mL (≈ 75.2 µM); in test [2], 0.5 to 12.5 µg/mL (≈ 1.5 to 37.6 µM); in test [3], 0.2 µg/mL (≈ 0.602 µM); in test [4] it was 0.08 µg/mL (≈ 0.241 µM); in [5] it was 1.6 to 25 µg/mL (≈ 4.81 to 75.2 µM); in test [6], 0.2 to 25 µg/mL (≈ 0.602 to 75.2 µM). Further, the ED50 in test [7] (oral administration) was determined as 25.5 mg/kg; in [7] (sc, subcutaneous injection), 42.1 mg/kg. Also, the Death rate is 3/9 in [8] (50 ppm in feed); 2/9 in [8] (100 ppm in feed); 2/9 in test [8] (200 ppm in feed); 2/9 in test [8] (400 ppm in feed); 2/9 in test [8] (800 ppm in feed). Also, in test [9], the “Number of fishes surviving” value is 25 fishes.

Take `O=C(NCCO)c1ccc(C=Cc2ccc([N+](=O)[O-])o2)cc1` [Example 1, 2-Para-[2'-(5"-nitro-2"-furyl)-vinyl]-benzoylaminoethanol]: the MIC in test [1] is 25 µg/mL (≈ 82.7 µM); in test [2] it was 0.5 to 25 µg/mL (≈ 1.65 to 82.7 µM); in test [3], 0.1 µg/mL (≈ 0.331 µM); in test [4], 0.15 µg/mL (≈ 0.496 µM); in test [5], 1.6 to 12.5 µg/mL (≈ 5.29 to 41.4 µM); in [6], 0.2 to 25 µg/mL (≈ 0.662 to 82.7 µM). In addition, the ED50 came out at 21.8 mg/kg in [7] (oral administration) and 50 mg/kg in test [7] (sc, subcutaneous injection). The Death rate in test [8] (50 ppm in feed) is on record as 3/9; in [8] (100 ppm in feed), 2/9; in test [8] (200 ppm in feed), 2/9; in test [8] (400 ppm in feed) it was 2/9; in test [8] (800 ppm in feed), 1/9. Besides, in test [9], the “Number of fishes surviving” value came to 26 fishes.

These data come from US3994882A, “Nitrofuran derivatives, process for the preparation thereof and compositions containing same as active ingredient” (Kabushiki Kaisha Ueno Seiyaku Oyo Kenkyujo, priority 1974, dated 1976).
